From ChEMBL document CHEMBL3739280, “12,17-Cyclojatrophane and Jatrophane Constituents of Euphorbia welwitschii” (J Nat Prod, 2015)

Columns and labels:
[1] = Antiproliferative activity against human EPG85-257RDB cells after 5 days by SRB assay; format: functional, cell-based; conditions: 120 h
[2] = Resistance index, ratio IC50 for human EPG85-257RDB cells to IC50 for human EPG85-257 cells; format: functional
[3] = Antiproliferative activity against human EPP85-181RDB cells after 5 days by SRB assay; format: functional, cell-based; conditions: 120 h
[4] = Resistance index, ratio IC50 for human EPP85-181RN cells to IC50 for human EPP85-181P cells; format: functional
[5] = Resistance index, ratio IC50 for human EPP85-181RDB cells to IC50 for human EPP85-181P cells; format: functional
[6] = Antiproliferative activity against human EPP85-181RN cells after 5 days by SRB assay; format: functional, cell-based; conditions: 120 h

Row | Structure (SMILES) | IC50 [1] | Ratio IC50 [2] | IC50 [3] | Ratio IC50 [4] | Ratio IC50 [5] | IC50 [6]
1 | C=C1[C@H](OC(=O)C(C)C)[C@@H](OC(=O)C(C)C)[C@@H](OC(=O)c2cccnc2)C(C)(C)[C@H](O)[C@H]2O[C@@]3(C[C@H](C)[C@H](OC(C)=O)[C@@H]3[C@H]1OC(C)=O)C(=O)[C@H]2C | 17.2 µM | 0.6 |  |  |  | 
2 | C=C1[C@H](OC(=O)C(C)C)[C@@H](OC(=O)C(C)C)[C@@H](OC(=O)c2cccnc2)C(C)(C)[C@H]2O[C@@H]2[C@@H](C)C(=O)[C@@]2(O)C[C@H](C)[C@H](OC(C)=O)[C@@H]2[C@H]1OC(C)=O | 3.6 µM | 0.1 | 18.2 µM | 0.7 | 0.6 | 21.3 µM
